Values of other authors, collected in patent US20250178999A1, “ONE STEP SYNTHESIS OF 1-TETRALONE COMPOUNDS AND USES THEREOF IN THE PREPARATION OF (+)-TETRALONE ABSCISIC ACID (ABA)” (University of Saskatchewan, priority 2022, published 2025).
Like-named read-outs stand apart in the source and are kept apart here.

Tests used:
Arabidopsis = conditions: for IC50: Vaidya et al 2019, read-out: IC50 in germination of Arabidopsis
[1] = Nyangulu et al 2006
[2] = system: corn cell suspension system; conditions: Nyangulu et al 2006
lettuce = conditions: Han et al 2015
rice seedling = conditions: Han et al 2015
ABA receptors [3] = conditions: Arabidopsis receptors; Vaidya et al 2019
ABA receptors [4] = conditions: wheat receptors; Vaidya et al 2019
corn cell = conditions: Nyangulu et al 2006

SMILES: CC1=CC(=O)CC(C)(C)[C@@]1(O)/C=C/C(C)=C\C(=O)O [(+)-1, (2Z,4E)-5-[(1S)-1-hydroxy-2,6,6-trimethyl-4-oxocyclohex-2-en-1-yl]-3-methylpenta-2,4-dienoic acid, reference compound]
- IC50 (Arabidopsis): 601 nM

SMILES: CC(=C/C(=O)O)/C=C/[C@@]1(O)c2ccccc2C(=O)C[C@]1(C)CO [Compound 8]
- biological activity [1]: retain biological activity
- metabolic fate in corn cell suspension system [2]: not converted to a phaseic acid-like compound

SMILES: CC(=C/C(=O)O)/C=C/C1(O)c2ccccc2C(=O)CC1(C)C (racemic) [(±)-5]
- activity in seed germination assay in lettuce compared to racemic ABA (lettuce): higher activity than racemic ABA
- activity in seed germination assay in arabidopsis compared to racemic ABA (Arabidopsis; Han et al 2015): higher activity than racemic ABA
- activity in rice seedling growth inhibition assay compared to racemic ABA (rice seedling): higher activity than racemic ABA

SMILES: N#Cc1c(C2CC2)cc(CC(=O)NC2(C(=O)O)CCCCC2)cc1C1CC1 [Compound 7, opabactin, reference compound]
- relative potency of 7 and (+)-5 by receptor subgroup (ABA receptors [3]): more the active in subgroup III
- IC50 (Arabidopsis): 62 nM
- relative potency of 7 and (+)-5 by receptor subgroup (ABA receptors [4]): more the active in subgroup III

SMILES: CC(=C/C(=O)O)/C=C/[C@@]1(O)c2ccccc2C(=O)CC1(C)C [(+)-5, (2Z,4E)-5-((S)-1-hydroxy-2,2-dimethyl-4-oxo-1,2,3,4-tetrahydronaphthalen-1-yl)-3-methylpenta-2,4-dienoic acid]
- relative potency of 7 and (+)-5 by receptor subgroup (ABA receptors [3]): more potent in subgroup II
- activity in seed germination inhibition assay in Arabidopsis compared to ABA (Arabidopsis; Nyangulu et al 2006): higher activity than ABA
- IC50 (Arabidopsis): 194 nM
- activity in corn cell growth inhibition assay compared to ABA (corn cell): higher activity than ABA
- relative potency of 7 and (+)-5 by receptor subgroup (ABA receptors [4]): more potent in subgroup II
